Here are results for 19 substances from US5872207A, “N-terminal-marked peptides immobilized on glass beads and method of preparation and method of use thereof” (Sanofi Pharmaceuticals, Inc., priority 1995, dated 1999).

A word on the Ki: it is a dissociation constant, usually derived from enzyme kinetics or from competition with a known ligand.

Ends that are not written are not given here. * marks the point of attachment. Hcp = 3-(7-hydroxy-4-coumarinyl)propionyl, N-terminal fluorescent marker, O=C(CCc1cc(=O)oc2cc(O)ccc12)*; silane glass bead = not defined here; Ahx = NCCCCCC(=O)O

The subject of the first experiment is recombinant truncated collagenase. Nature of the experiment: Bioassay: cleavage of immobilized peptide by recombinant truncated collagenase, fluorescence of supernatant. In kind it is biochemical. Conditions: collagenase 10 nM, immobilized peptide 7.5 mg/mL, pH 7.5, 30-60 minutes; excitation 355 nm, emission 460 nm; mean of two measurements. From the text:
In a second process aspect the invention is a biochemical assay method which comprises reacting in aqueous medium a protease and a substrate peptide or peptide having an amino acid-like moiety in place of an amino acid moiety thereof immobilized on glass beads by a C-terminal linker-anchor and marked by an N-terminal fluorescent marker, separating the resulting glass beads from the supernatant liquid, measuring the fluorescence of the supernatant liquid, and determining from the measured fluorescence the extent of cleavage of the substrate by the protease. By an additional step the site of cleavage of the substrate by the protease can be determined by sequential amino acid analysis.
The protease used was recombinant truncated collagenase of molecular weight 19,000, which was stored at 4° C. as a 10 μM stock aqueous solution and diluted to 30 nM just prior to carrying out the assay with aqueous buffer solution containing tromethamine (TRIS, 50 mM), sodium chloride solution (0.2M), calcium chloride (10 mM), and octoxynol-9 to 10 (Triton X-100, 0.1% v/v), whose pH was adjusted to 7.5 with aqueous sodium hydroxide solution and which was filtered and stored at 4° C. A 2- to 3-mg sample of the immobilized peptide was weighed into a 1.5-mL polypropylene microfuge tube. Sufficient buffer solution was added with vortexing to wet the immobilized peptide and make the concentration thereof 7.5 mg/mL. Sufficient collagenase solution was added to make the concentration thereof 10 nM, the tube was vortexed mechanically for 30-60 minutes, and the reaction was stopped by centrifuging. Part of the supernatant solution (200 μL) was transferred to a well of a 96-well plate. Fluorescence was measured at an excitation wavelength of 355 nm and an emission wavelength of 460 nm. The following mean fluorescence values from two measurements were obtained from the immobilized peptides of Formulas IIIa-r.
Regarding “IIIa (Hcp-GPLAMF; not fully specified (C-terminus); also: C-terminus linked via NH(CH2)3Si(OR)2O anchor to glass bead)”, the “Mean Fluorescence Value ± Deviation” value is given as 2042.5 ± 13. For the substance “IIIb (Hcp-GPLAMF; not fully specified (C-terminus); also: C-terminus linked via NH(CH2)3Si(OR)2O anchor to glass bead)”, the “Mean Fluorescence Value ± Deviation” value is on record as 3824.5 ± 9. For the substance “IIIc (Hcp-GPLAMF; not fully specified (C-terminus); also: C-terminus linked via NH(CH2)3Si(OR)2O anchor to glass bead)”, the “Mean Fluorescence Value ± Deviation” value amounted to 5733.5 ± 132. The same measure, in the same setting: next, “IIId (Hcp-GPLAMF; not fully specified (C-terminus); also: C-terminus linked via NH(CH2)3Si(OR)2O anchor to glass bead)”: 6157.0 ± 72. The same measure, in the same setting: next, “IIIe (Hcp-GPLAMF; not fully specified (C-terminus); also: C-terminus linked via NH(CH2)3Si(OR)2O anchor to glass bead)”: 5838.5 ± 170; “IIIf (Hcp-GPLAMF; not fully specified (C-terminus); also: C-terminus linked via NH(CH2)3Si(OR)2O anchor to glass bead)”: 7559.5 ± 2551. Consider “IIIg (Hcp-GPLAMF; not fully specified (C-terminus); also: C-terminus linked via NH(CH2)3Si(OR)2O anchor to glass bead)”, for which the “Mean Fluorescence Value ± Deviation” value is 5374.5 ± 53. The same measure, in the same setting: in the case of “IIIh (Hcp-GPLAMF-{Ahx-Ahx-Ahx-Ahx-Ahx-Ahx-Ahx-Ahx-silane glass bead}; not fully specified; reading uncertain; also: C-terminus linked via NH(CH2)3Si(OR)2O anchor to glass bead)” it was 4723.5 ± 213; in that of “IIIi (Hcp-GPLAMF-{Ahx-Ahx-Ahx-Ahx-Ahx-Ahx-Ahx-Ahx-Ahx-silane glass bead}; not fully specified; reading uncertain; also: C-terminus linked via NH(CH2)3Si(OR)2O anchor to glass bead)”, 4238.5 ± 192; in that of “IIIj (Hcp-GPLAMF-{Ahx-Ahx-Ahx-Ahx-Ahx-Ahx-Ahx-Ahx-Ahx-Ahx-silane glass bead}; not fully specified; reading uncertain; also: C-terminus linked via NH(CH2)3Si(OR)2O anchor to glass bead)”, 3662.5 ± 23. Take “IIIk (Hcp-APLALF; not fully specified (C-terminus); also: C-terminus linked via NH(CH2)3Si(OR)2O anchor to glass bead)”: the “Mean Fluorescence Value ± Deviation” value came to 3316.0 ± 57. The same measure, in the same setting: next, “IIIl (Hcp-GALALF; not fully specified (C-terminus); also: C-terminus linked via NH(CH2)3Si(OR)2O anchor to glass bead)”: 707.9 ± 266; “IIIm (Hcp-GPAALF; not fully specified (C-terminus); also: C-terminus linked via NH(CH2)3Si(OR)2O anchor to glass bead)”: 4283.0 ± 150. Still for that read-out and setting: in the case of “IIIn (Hcp-GPLALF; not fully specified (C-terminus); also: C-terminus linked via NH(CH2)3Si(OR)2O anchor to glass bead)” it was 2964.5 ± 136. In the case of “IIIo (Hcp-GPLAAF; not fully specified (C-terminus); also: C-terminus linked via NH(CH2)3Si(OR)2O anchor to glass bead)”, the “Mean Fluorescence Value ± Deviation” value worked out at 328.1 ± 0.

As for “IIIp (Hcp-GPLALA; not fully specified (C-terminus); also: C-terminus linked via NH(CH2)3Si(OR)2O anchor to glass bead)”, the “Mean Fluorescence Value ± Deviation” value is on record as 1913.5 ± 63.

“IIIq (Hcp-AAALWAA; not fully specified (C-terminus); also: C-terminus linked via NH(CH2)3Si(OR)2O anchor to glass bead)”: the “Mean Fluorescence Value ± Deviation” value turned out to be 379.5 ± 115.

The same experiment, now with this note: immobilized peptides having the linker (Acp)7 (Formulas IIIg and IIIk-r).
For “IIIg (Hcp-GPLAMF; not fully specified (C-terminus); also: C-terminus linked via NH(CH2)3Si(OR)2O anchor to glass bead)”, the extent of cleavage entry was “underwent cleavage to the greatest extent”.

The next experiment has as its target monoclonal antibody against β-endorphin.
Experiment: not given
Conditions: Lam et al., Nature 354, 82-84 (1991); cited from earlier work.
For the substance YGGFL, the Ki is 17.5 ± 3.2 nM. As to YGGFQ, the Ki was 15 ± 1.7 nM.

A further experiment relates to mouse monoclonal antibody 3E7.
Experiment: not given
As to conditions: Fodor et al., Science 251, 767-773 (1991); checkerboard on glass plate, epifluorescence microscope; cited from earlier work.
YGGFL: the “binding / detection by antibody 3E7” value is given as “showed fluorescence”.
